# Measurements reported in PubChem BioAssay (NCI).
#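 96-well plates; 48 h exposure; 5 concentrations. Endpoints by linear interpolation between flanking doses. Not reached: highest tested concentration assigned. GI50: concentration for 50% inhibition of growth. The concentration for full growth arrest is given as TGI.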
# Experiments:
# Test in all cases: NCI tumour cell line growth inhibition, 48 h
# HT29 colon = test system: HT29 colon
# RPMI-8226 leukemia = test system: RPMI-8226 leukemia
# UO-31 renal = test system: UO-31 renal
# ACHN renal = test system: ACHN renal
# NCI-H522 lung = test system: NCI-H522 lung
# OVCAR-4 ovarian = test system: OVCAR-4 ovarian
# CAKI-1 renal = test system: CAKI-1 renal
# UACC-257 melanoma = test system: UACC-257 melanoma
# MALME-3M melanoma = test system: MALME-3M melanoma
# SK-MEL-5 melanoma = test system: SK-MEL-5 melanoma
SMILES,TGI (HT29 colon) [µM],TGI (RPMI-8226 leukemia) [µM],TGI (UO-31 renal) [µM],TGI (ACHN renal) [µM],TGI (NCI-H522 lung) [µM],TGI (OVCAR-4 ovarian) [µM],TGI (CAKI-1 renal) [µM],GI50 (HT29 colon) [µM],GI50 (UACC-257 melanoma) [µM],TGI (UACC-257 melanoma) [µM],GI50 (UO-31 renal) [µM],GI50 (ACHN renal) [µM],GI50 (NCI-H522 lung) [µM],GI50 (MALME-3M melanoma) [µM],TGI (MALME-3M melanoma) [µM],GI50 (OVCAR-4 ovarian) [µM],GI50 (CAKI-1 renal) [µM],GI50 (SK-MEL-5 melanoma) [µM],TGI (SK-MEL-5 melanoma) [µM],GI50 (RPMI-8226 leukemia) [µM]
CCCN(CCC)C(=O)c1c([N+](=O)[O-])cc(C(F)(F)F)cc1[N+](=O)[O-],> 100,> 100,> 100,> 100,60.5,32.9,> 100,,,,,,,,,,,,,
CCCCC(CC)COC(=O)C[N+](C)(C)CCOC(c1ccccc1)c1ccccc1 (stereo unspecified),13.1,,27.3,30.5,3.67,6.99,31.9,3.55,2.56,7.6,12.4,15,1.75,1.49,3.09,2.4,16.8,1.73,3.1,
S=c1ssc(N2CCOCC2)c1Cl,> 100,69.2,> 100,> 100,55.4,> 100,> 100,47.4,> 100,> 100,> 100,78.5,20.4,,,> 100,> 100,16.5,30,23.3
O=C(N/N=C/c1cc(Br)ccc1O)N/N=C/c1cc(Br)ccc1O,> 100,,> 100,> 100,> 100,> 100,> 100,,,> 100,,,,,> 100,,,,> 100,
COC(=O)C(CC(=O)Nc1ccc(C)cc1)C(=O)C(=O)Nc1c(C(C)C)cccc1C(C)C (stereo unspecified),,> 100,> 100,> 100,> 100,> 100,> 100,,,,,,,,> 100,,,,,
c1cnn(CN(Cn2cccn2)Cn2cccn2)c1,,> 100,> 100,> 100,> 100,> 100,> 100,,,> 100,,,,,,,,,> 100,
Cn1cc(C2(C)CC(C)(C)c3c2n(C)c2ccccc32)c2ccccc21 (stereo unspecified),> 100,> 100,> 100,,> 100,,> 100,,,> 100,,,,,> 100,,,,> 100,
CC1=C(/C=C/Cl)CC(Cl)C(C)(Cl)C1 (stereo unspecified),> 100,,> 100,> 100,> 100,> 100,> 100,,,> 100,,,,,> 100,,,,> 100,
Clc1cc(Cl)c2ns[s+]c2c1Cl,> 100,,> 100,> 100,> 100,> 100,> 100,,,> 100,,,,,> 100,,,,> 100,
O=C(c1cccc2ccccc12)N1CCC(C2CCN(C(=O)c3cccc4ccccc34)CC2)CC1,> 100,> 100,> 100,> 100,> 100,,> 100,,,> 100,,,,,> 100,,,,> 100,
COc1ccc(CN2CC(C)(C)C2=O)c(OC)c1,> 100,> 100,> 100,> 100,> 100,> 100,,,,> 100,,,,,> 100,,,,> 100,
